“And” between values parts separate entries of the source, which are not always exact repeats. Equal values may be shown once.
How the values were obtained:
[1] = biological target: T1, clot containing human fibrin (Homo sapiens, UniProt P02671+P02675+P02679); test: Rabbit jugular vein clot model, MR imaging; assay type: in vivo; settings: MR images after injection (FIG. 14)
T1 construct: host or cells: clot formed in the clamped rabbit jugular vein from added human fibrinogen and thrombin
T1 sequence (P02671 36-629 limits assumed): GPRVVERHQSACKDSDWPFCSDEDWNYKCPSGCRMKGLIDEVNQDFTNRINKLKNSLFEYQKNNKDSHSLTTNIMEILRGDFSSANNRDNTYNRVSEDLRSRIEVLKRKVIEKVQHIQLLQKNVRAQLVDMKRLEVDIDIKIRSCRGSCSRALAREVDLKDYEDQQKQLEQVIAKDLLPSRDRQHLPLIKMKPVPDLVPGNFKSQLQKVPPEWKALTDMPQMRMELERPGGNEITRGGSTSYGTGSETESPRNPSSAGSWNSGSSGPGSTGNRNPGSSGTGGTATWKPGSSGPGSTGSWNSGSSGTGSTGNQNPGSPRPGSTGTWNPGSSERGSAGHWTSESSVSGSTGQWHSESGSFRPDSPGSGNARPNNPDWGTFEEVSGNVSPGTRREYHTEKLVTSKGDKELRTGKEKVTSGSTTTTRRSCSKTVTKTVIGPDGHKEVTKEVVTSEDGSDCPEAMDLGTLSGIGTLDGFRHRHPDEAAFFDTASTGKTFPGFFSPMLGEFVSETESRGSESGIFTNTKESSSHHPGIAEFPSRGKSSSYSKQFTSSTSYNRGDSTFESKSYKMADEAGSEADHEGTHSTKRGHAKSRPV
T1 sequence (P02675 45-491 limits assumed): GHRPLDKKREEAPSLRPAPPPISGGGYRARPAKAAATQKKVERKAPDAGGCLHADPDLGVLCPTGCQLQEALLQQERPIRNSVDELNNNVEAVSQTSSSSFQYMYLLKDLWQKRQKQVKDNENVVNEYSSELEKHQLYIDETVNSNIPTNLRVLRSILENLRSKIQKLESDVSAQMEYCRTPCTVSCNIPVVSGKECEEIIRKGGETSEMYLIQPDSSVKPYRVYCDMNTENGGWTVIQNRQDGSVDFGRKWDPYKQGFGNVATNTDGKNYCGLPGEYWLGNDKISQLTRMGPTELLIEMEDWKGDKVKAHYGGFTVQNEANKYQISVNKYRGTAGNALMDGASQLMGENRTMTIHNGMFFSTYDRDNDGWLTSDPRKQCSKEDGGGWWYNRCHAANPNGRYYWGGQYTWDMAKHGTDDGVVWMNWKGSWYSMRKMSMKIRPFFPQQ
T1 sequence (P02679 27-437 isoform P02679-2 limits assumed): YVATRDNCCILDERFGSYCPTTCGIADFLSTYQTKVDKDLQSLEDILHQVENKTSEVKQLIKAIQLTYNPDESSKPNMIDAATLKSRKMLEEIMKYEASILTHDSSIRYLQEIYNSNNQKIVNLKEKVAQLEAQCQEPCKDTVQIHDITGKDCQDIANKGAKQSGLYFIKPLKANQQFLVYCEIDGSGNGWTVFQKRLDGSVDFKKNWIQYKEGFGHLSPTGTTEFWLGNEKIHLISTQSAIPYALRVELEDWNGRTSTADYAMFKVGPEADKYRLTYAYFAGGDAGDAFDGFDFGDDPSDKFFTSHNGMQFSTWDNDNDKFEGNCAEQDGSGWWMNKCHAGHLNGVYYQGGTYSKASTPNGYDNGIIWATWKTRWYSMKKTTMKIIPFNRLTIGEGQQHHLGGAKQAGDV
Procedure: One animal model that may be used is the rabbit jugular vein clot model in which the jugular vein is clamped. The vein is clamped at two locations, and the rabbit blood between the clamps is removed. Human fibrinogen, rabbit red blood cells and thrombin are added to the vein between the clamps to generate a clot containing human fibrin. The clot is typically aged for 30 minutes.
In the rabbit jugular model, a typical machine is a 1.5 Tesla using a spoiled gradient (SPGR) MRI at 36/5/30 deg). Alternatively, a 3D GRE 44/10/30 deg. method of imaging may be used with a 1.5 Tesla machine. Alternatively, IR 2000/10/700 methods may be employed with a 1.5 Tesla.
FIG. 14 is a reproduction of a color photograph of the images obtained in an experiment using the assay given in Example 1.

[2] = biological target: T2, Human Serum Albumin (HSA) (Homo sapiens, UniProt P02768); test: Average bound relaxivity in the presence of 4.5% HSA (20 MHz, 37° C.); assay type: physicochemical; settings: for R1bound/Gd^+3 mM^−1s^−1 (20 MHz) / Total R1bound mM^−1s^−1 (20 MHz): bound to HSA; for R1bound/Gd^+3 mM^−1s^−1 (20 MHz): per Gd(III); for Total R1bound mM^−1s^−1 (20 MHz): whole molecule
T2 sequence (P02768 25-609): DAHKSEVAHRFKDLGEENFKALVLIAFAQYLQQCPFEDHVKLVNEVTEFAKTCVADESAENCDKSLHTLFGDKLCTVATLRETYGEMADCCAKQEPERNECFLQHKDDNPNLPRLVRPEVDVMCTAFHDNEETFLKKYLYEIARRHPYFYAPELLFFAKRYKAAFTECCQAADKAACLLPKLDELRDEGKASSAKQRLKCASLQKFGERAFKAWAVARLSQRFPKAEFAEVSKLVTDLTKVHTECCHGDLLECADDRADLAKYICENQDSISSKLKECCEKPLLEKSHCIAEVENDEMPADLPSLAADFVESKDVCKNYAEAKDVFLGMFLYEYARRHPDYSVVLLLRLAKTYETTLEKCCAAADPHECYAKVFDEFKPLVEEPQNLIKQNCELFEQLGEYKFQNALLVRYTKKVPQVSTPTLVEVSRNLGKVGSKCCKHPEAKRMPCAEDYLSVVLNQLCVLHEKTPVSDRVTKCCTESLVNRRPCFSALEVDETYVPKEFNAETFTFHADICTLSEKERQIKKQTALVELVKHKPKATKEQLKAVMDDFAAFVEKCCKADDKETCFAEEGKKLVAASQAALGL
Source text: To understand Table 1, it is important to define the extent to which a target-binding MRI contrast agent can achieve its maximum possible relaxivity. This maximum relaxivity for a particular contrast agent is approximately equal to the relaxivity of the molecule when bound to a target (R1bound), such as Human Serum Albumin (HSA). The average ? bound is a normalized measure of the average relaxivity for all bound species under a standard set of conditions (such as a specific target or protein concentration, drug concentration, temperature, etc.) that is weighted by the bound population of each species. Therefore, since the value of ? bound is a normalized quantity, comparisons of relaxivities can be made among different molecules in the bound state by comparing values for ? bound. Comparison of the calculated ? bound values provides a convenient method for comparing compounds irrespective of their affinities for a target.
Calculating the average ( ? bound) requires measuring the relaxivity of the free chelate (R1free) as well as the observed relaxivity (R1obs) and percent binding of the agent to a target solution typically containing 4.5% of the target, e.g., HSA. The R1obs is a mole fraction (x) weighted average of R1free and R1bound: [formula]
(§1) The compounds of the present invention were evaluated for relaxivity using a Bruker NMS-120 Minispec NMR spectrometer operating at 0.47 Tesla (20 MHz H-1 Larmor frequency) and 37° C. T1 of water protons was determined by an inversion recovery pulse sequence using the instrument's software. Relaxivity was determined in the presence of the target (typically 4.5% HSA) by preparing 4 individual samples. The first contained only 4.5% HSA in phosphate buffered saline (PBS), and the other three contained ca. 20, 30, and 40 μM Gd(III), respectively, in addition to 4.5% HSA in PBS. The samples are incubated at 37 degrees C. for at least 15 minutes to ensure temperature equilibration before the T1 measurement is performed. The Gd(III) content of the samples is determined by inductively coupled plasma—mass spectrometry (ICP-MS). The relaxivity (per Gd(III) ion) is determined by plotting the relaxation rate (1/T1) in s^−1 versus the Gd(III) concentration in mM. The slope of a linear fit to the data gives the relaxivity. The relaxivity of the compounds in the absence of target is also determined in an analogous manner, except there is no target present.
The concentration of species bound to the target under these conditions is determined in a separate experiment using e.g. ultrafiltration or equilibrium dialysis. Knowledge of the amount of species bound to the target, the relaxivity in the presence of the target, and the relaxivity in the absence of the target allows the calculation of the average bound relaxivity as described herein.

[3] = biological target: T2, Human Serum Albumin (HSA); test: Percent binding to HSA (ultrafiltration); settings: target HSA
Source text: The extent of binding of a TBM to a target, such as HSA or fibrin, can be assessed by a variety of equilibrium binding methods. For example, binding to HSA can be measured by ultrafiltration. In a typical binding measurement using ultrafiltration, the targeting group is mixed with 4.5% weight/volume HSA in a pH 7.4 buffer. The sample is loaded into a commercially available centrifugation apparatus equipped with a 30 KDa molecular weight cutoff filter (Millipore Ultrafree MC Low Binding Regenerated Cellulose 30 KDa mol. wt. cutoff catalog #UFC3LTK00), permeable to the targeting group, but not HSA. A small portion (5-10%) of the sample volume is filtered by centrifugation at 2000×g for 20 min through the cutoff filter, and the concentration of unbound targeting group in the sample is measured in the filtrate. The concentration of species bound to the target under these conditions is determined in a separate experiment using e.g. ultrafiltration or equilibrium dialysis. Knowledge of the amount of species bound to the target, the relaxivity in the presence of the target, and the relaxivity in the absence of the target allows the calculation of the average bound relaxivity as described herein.

[4] = Relaxivity of the free agent in the absence of target (20 MHz, 37° C.); assay type: physicochemical; settings: no target
Procedure: as §1

Compound	imaging of / binding to the clot [1]	R1bound/Gd^+3 mM^−1s^−1 (20 MHz) [2]	Total R1bound mM^−1s^−1 (20 MHz) [2]	% Bound [3]	free relaxivity [4]	ratio of R1bound to R1free ([2]; HSA)	fold increase in total relaxivity, two TBMs versus one TBM (M8-07) ([2]; HSA, relative to M8-07)
O=C([O-])CN(CCN(CC(=O)[O-])CC(=O)O)CCN(CC(=O)[O-])CC(=O)O.[Gd+3] [Gd-DTPA, gadolinium diethylenetriaminepentaacetic acid]	does not bind						
CCCCc1ccc(C(=O)N(Cc2ccccc2)C2c3ccccc3CC2OP(=O)([O-])OCCC#CCN2CCN(C(=O)CNC(=O)CC(C(=O)[O-])N(CCN(CC(=O)[O-])CC(=O)[O-])CCN(CC(=O)[O-])CC(=O)[O-])CCN(C(=O)CNC(=O)CC(C(=O)[O-])N(CCN(CC(=O)[O-])CC(=O)[O-])CCN(CC(=O)[O-])CC(=O)[O-])CCN(C(=O)CNC(=O)CC(C(=O)[O-])N(CCN(CC(=O)[O-])CC(=O)[O-])CCN(CC(=O)[O-])CC(=O)[O-])CC2)cc1.[Gd+3].[Gd+3].[Gd+3] (stereo not drawn) [Compound M8-10]		25.7 mM⁻¹ s⁻¹	77.1 mM⁻¹ s⁻¹	66.1%			
Cc1cc(C)c(-c2ccc(CN(CCN(CCN(CCNC(=O)CNC(=O)CC(C(=O)[O-])N(CCN(CC(=O)[O-])CC(=O)[O-])CCN(CC(=O)[O-])CC(=O)[O-])C(=O)CNC(=O)CC(C(=O)[O-])N(CCN(CC(=O)[O-])CC(=O)[O-])CCN(CC(=O)[O-])CC(=O)[O-])C(=O)CNC(=O)CC(C(=O)[O-])N(CCN(CC(=O)[O-])CC(=O)[O-])CCN(CC(=O)[O-])CC(=O)[O-])C(=O)CNC(=O)CC(C(=O)[O-])N(CCN(CC(=O)[O-])CC(=O)[O-])CCN(CC(=O)[O-])CC(=O)[O-])cc2)c(C)c1.[Gd+3].[Gd+3].[Gd+3].[Gd+3] (stereo not drawn) [Compound M8-07]		16.0 mM⁻¹ s⁻¹ and 16 mM⁻¹ s⁻¹	64.0 mM⁻¹ s⁻¹ and 64 mM⁻¹ s⁻¹	64.1%	9.2 mM⁻¹ s⁻¹	1.7	
Cc1cc(C)c(-c2ccc(CN(CCN(CCN(CCN(Cc3ccc(-c4c(C)cc(C)cc4C)cc3)C(=O)CNC(=O)CC(C(=O)[O-])N(CCN(CC(=O)[O-])CC(=O)[O-])CCN(CC(=O)[O-])CC(=O)[O-])C(=O)CNC(=O)CC(C(=O)[O-])N(CCN(CC(=O)[O-])CC(=O)[O-])CCN(CC(=O)[O-])CC(=O)[O-])C(=O)CNC(=O)CC(C(=O)[O-])N(CCN(CC(=O)[O-])CC(=O)[O-])CCN(CC(=O)[O-])CC(=O)[O-])C(=O)CNC(=O)CC(C(=O)[O-])N(CCN(CC(=O)[O-])CC(=O)[O-])CCN(CC(=O)[O-])CC(=O)[O-])cc2)c(C)c1.[Gd+3].[Gd+3].[Gd+3].[Gd+3] (stereo not drawn) [Compound M8-08]		44.1 mM⁻¹ s⁻¹	176.5 mM⁻¹ s⁻¹	93.7%	10.3 mM⁻¹ s⁻¹	4.3	2.75 fold

From patent US6652835B1, “Targeting multimeric imaging agents through multilocus binding” (Epix Medical, Inc., priority 1999, dated 2003)
